Assay results from article PMC11873939, “Target Identification with Live-Cell Photoaffinity Labeling and Mechanism of Action Elucidation of ARN23765, a Highly Potent CFTR Corrector” (Journal of Medicinal Chemistry, 2025).

Experiments:
[1] = molecular target: T1, F508del-CFTR (Homo sapiens, UniProt P13569, DEL508-508); assay: Live-cell photoaffinity labeling, streptavidin pull-down and CFTR Western blot; assay type: binding; conditions: F508del-CFTR CFBE41o- cells, 25-fold excess (25 μM) competitor 30 min before probe (1 μM)
T1 construct: expressed in transfected cells
T1 sequence (P13569 with tags, fused parts or gaps DEL508-508): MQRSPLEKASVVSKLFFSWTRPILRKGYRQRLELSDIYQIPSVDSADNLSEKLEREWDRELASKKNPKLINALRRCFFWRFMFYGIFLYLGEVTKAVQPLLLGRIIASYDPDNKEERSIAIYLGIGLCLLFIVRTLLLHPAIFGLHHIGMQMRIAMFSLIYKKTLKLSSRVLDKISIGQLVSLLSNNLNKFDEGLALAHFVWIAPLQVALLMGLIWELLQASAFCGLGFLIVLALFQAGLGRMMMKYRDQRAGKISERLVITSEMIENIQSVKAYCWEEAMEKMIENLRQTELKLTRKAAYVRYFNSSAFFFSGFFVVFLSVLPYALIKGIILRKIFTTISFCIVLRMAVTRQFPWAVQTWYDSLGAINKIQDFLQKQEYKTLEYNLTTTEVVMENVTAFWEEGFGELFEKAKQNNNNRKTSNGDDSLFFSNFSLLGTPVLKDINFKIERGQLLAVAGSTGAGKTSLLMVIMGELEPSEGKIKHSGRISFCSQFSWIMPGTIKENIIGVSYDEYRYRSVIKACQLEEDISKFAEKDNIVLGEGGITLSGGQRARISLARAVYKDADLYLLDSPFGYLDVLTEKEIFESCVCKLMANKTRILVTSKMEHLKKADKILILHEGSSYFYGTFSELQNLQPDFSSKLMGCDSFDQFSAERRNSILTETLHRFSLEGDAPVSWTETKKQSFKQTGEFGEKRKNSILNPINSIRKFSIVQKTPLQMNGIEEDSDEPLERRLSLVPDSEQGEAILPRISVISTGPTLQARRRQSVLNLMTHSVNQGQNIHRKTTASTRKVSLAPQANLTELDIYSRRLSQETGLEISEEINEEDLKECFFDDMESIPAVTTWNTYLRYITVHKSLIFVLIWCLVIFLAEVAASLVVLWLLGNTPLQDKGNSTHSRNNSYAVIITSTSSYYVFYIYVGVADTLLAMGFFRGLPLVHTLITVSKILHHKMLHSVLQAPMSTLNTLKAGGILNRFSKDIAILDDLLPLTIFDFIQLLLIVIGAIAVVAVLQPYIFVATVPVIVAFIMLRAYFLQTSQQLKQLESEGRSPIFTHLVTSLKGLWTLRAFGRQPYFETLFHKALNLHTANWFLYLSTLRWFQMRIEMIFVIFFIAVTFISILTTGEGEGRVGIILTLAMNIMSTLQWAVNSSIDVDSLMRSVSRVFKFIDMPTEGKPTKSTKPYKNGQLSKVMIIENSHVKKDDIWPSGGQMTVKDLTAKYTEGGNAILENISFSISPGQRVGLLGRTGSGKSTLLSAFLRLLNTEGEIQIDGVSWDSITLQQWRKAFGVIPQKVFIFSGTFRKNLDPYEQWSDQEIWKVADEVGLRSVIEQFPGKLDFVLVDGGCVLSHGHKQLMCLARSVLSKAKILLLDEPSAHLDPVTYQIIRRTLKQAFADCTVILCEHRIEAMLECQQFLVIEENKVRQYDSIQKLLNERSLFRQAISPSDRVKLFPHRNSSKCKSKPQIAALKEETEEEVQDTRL
Procedure: Wt-CFTR or F508del-CFTR CFBE41o- cells were plated at 2–2.5 × 10^6 cells/plate in 6 cm diameter dishes. The day after, sodium butyrate (5–2.5 mM) was added for 24 h; next, the medium was exchanged with fresh one supplemented with DMSO (0.25%) (276855, Sigma-Aldrich) or probe (1 μM). For competition experiments, a 25-fold excess of ARN23765 (25 μM) was added 30 min before probe’s addition. For the analysis of “corrected” F508del-CFTR, F508del-CFTR CFBE41o- cells were kept at 27 °C for 24 h before adding the probes. Probes were incubated with cells for 2 h, then the medium was removed, and plates were washed twice with phosphate buffer saline (PBS). Cells were placed on ice and irradiated for 5 min at a wavelength of 365 nm using a 100-W UV-lamp (95–0127–02 model B100-AP, Analytik Jena). Cells were harvested with trypsin (T4299, Sigma-Aldrich), washed with PBS (D8537, Sigma-Aldrich), and pellets were stored at −80 °C until used, centrifuged at 300 × g and washed twice with PBS (D8537, Sigma-Aldrich). Pellets from in-cell photoaffinity labeling with alkyne-probes (PAP_1 and PAP_2) were lysed in PBS plus protease inhibitor cocktail (78429, Thermo Scientific) by sonication. The suspension was centrifuged at 800 × g for 20 min at 4 °C to discard nuclei and cell debris. The total extracted proteins were quantified with the bicinchoninic acid (BCA) protein assay (23225, Thermo Scientific) and subjected to CuAAC before proceeding with pull-down. Pellets from in-cell photoaffinity labeling with desthio-biotinylated (DS-biot) probes (PAP_1 DS-biot, PAP_2 DS-biot, PAP_N1 DS-biot, PAP_N2 DS-biot) were lysed with a modified RIPA buffer [50 mM tris-HCl pH 8, 150 mM NaCl, 0.5% Triton-X100, 0.2% SDS, 1 mM ethylenediaminetetraacetic acid (EDTA)] supplemented with protease inhibitor cocktail and centrifuged at 10.000× g for 10 min. The protein content in the supernatant was quantified by BCA protein assay. Protein lysate (200 μg) was diluted to 800 μL and the Triton-X100 percentage was reduced to 0.2% before proceeding to pull-down.
High capacity streptavidin agarose (20359, Thermo Scientific) (25 μL) was added to PAP-labeled cell extracts for 1 h at room temperature under gentle rotation. The streptavidin beads were collected by centrifugation and washed four times with lysis buffer. Resin-bound proteins were eluted with 45 μL of 5 mM biotin (B4501, Sigma-Aldrich) for 30 min at room temperature and analyzed with Western blot for CFTR expression. Input samples (4 and 8 μg for wt-CFTR and F508del-CFTR CFBE41o-, respectively) were collected immediately before incubation with streptavidin resin. Input and pulled-down samples were analyzed with WB as described in the supplementary methods.

[2] = molecular target: T2, F508del-CFTR double mutants (K68I, N71I, R74A, F81A, A198Y, W361A, S364F) (Homo sapiens, UniProt P13569, DEL508-508/K68I); assay: Protein maturation assay (WB) of F508del-CFTR double mutants in transfected HEK293 cells; assay type: cell-based; conditions: F508del/K68I-CFTR; HEK293, 10 nM, 24 h
T2 construct: CFTR identification in pull-down studies and analysis of full-length CFTR in protein maturation assays; expressed in transfected cells; host or cells: HEK293 (transient, pCDNA3.1 constructs, JetPEI)
T2 sequence (P13569 with tags, fused parts or gaps K68I/DEL508-508): as the sequence (P13569 with tags, fused parts or gaps DEL508-508) above, with K68I counted along it
Procedure: (§1) To confirm in cells the above-predicted binding site for ARN23765, we introduced the investigated single-site mutations into the F508del-CFTR coding sequence. The rescue of double mutant proteins (F508del + new mutation) by ARN23765 was assessed with WB analysis of protein maturation and evaluation of channel activity (FLIPR assay)[40] in transfected HEK293 cells. Since correctors 3151 (type II)[16] and VX-445 (type III)[18] have been reported to bind to different CFTR sites, we used these compounds as controls. As expected, ARN23765-induced maturation of F508del-CFTR was not affected by the N71I substitution. […] Indeed, the corrector was no longer able to promote protein maturation (Figure 9A and S8A). […] The results of protein maturation analysis were mostly confirmed by functional data (Figure 9B and S8B), in which the channel activity of double-mutated proteins was evaluated in terms of the change in cell membrane potential change (FLIPR assay).
(§2) HEK293 cells were plated in 24-wells at around 80% of confluence and transfected with constructs coding for F508del-CFTR or mutants using JetPEI reagent (101000053, Polyplus Technology) following the manufacturer’s instructions. After 24 h, the correctors were added for a further 24 h. Correctors were used at the following concentrations: ARN23765 (10 nM), VX-445 (3 μM), and 3151 (10 μM). For binding site analysis experiments, the cells were kept either at 37 °C (Figure S8) or moved to 30 °C (Figure 9) during incubation with the selected correctors. VX-445 and corrector 3151 were mixed together as a control for maximal protein correction. DMSO (0.2%) was added to nontreated controls. After treatment, cells were lysed in RIPA buffer [50 mM tris-HCl pH 8, 150 mM NaCl, 1% NP40, 0.5% sodium deoxycolate, 0.1% SDS, 2.0 mM EDTA] and lysates were analyzed with WB, as described in the supplementary methods of the Supporting Information. […]
(§3) Site-directed mutagenesis
(§4) Desired mutations were introduced using the QuikChange II XL site-directed mutagenesis kit (200522,
(§5) Agilent Technologies) according to the manufacturer’s instructions. F508del-CFTR pCDNA3.1 was used
(§6) as a template for the synthesis of mutated constructs K68I/F508del-CFTR, N71I/F508del-CFTR,
(§7) S364F/F508del-CFTR. The introduction of the mutation and the whole CFTR sequence were checked by
(§8) Sanger sequencing. Mutants R1070W/F508del-CFTR and R170G-
(§9) CFTR were produced as previously described.4

[3] = molecular target: T3, F508del-CFTR double mutants (K68I, N71I, R74A, F81A, A198Y, W361A, S364F) (Homo sapiens, UniProt P13569, DEL508-508/F81A); assay: as above; assay type: cell-based; conditions: F508del/F81A-CFTR; HEK293, 10 nM, 24 h
T3 construct: CFTR identification in pull-down studies and analysis of full-length CFTR in protein maturation assays; expressed in transfected cells; host or cells: HEK293 (transient, pCDNA3.1 constructs, JetPEI)
T3 sequence (P13569 with tags, fused parts or gaps F81A/DEL508-508): as the sequence (P13569 with tags, fused parts or gaps DEL508-508) above, with F81A counted along it
Procedure: as §1, §2, §3, §4, §5, §6, §7, §8, §9

[4] = molecular target: T4, F508del-CFTR double mutants (K68I, N71I, R74A, F81A, A198Y, W361A, S364F) (Homo sapiens, UniProt P13569, DEL508-508/N71I); assay: as above; assay type: cell-based; conditions: F508del/N71I-CFTR; HEK293, 10 nM, 24 h
T4 construct: CFTR identification in pull-down studies and analysis of full-length CFTR in protein maturation assays; expressed in transfected cells; host or cells: HEK293 (transient, pCDNA3.1 constructs, JetPEI)
T4 sequence (P13569 with tags, fused parts or gaps N71I/DEL508-508): as the sequence (P13569 with tags, fused parts or gaps DEL508-508) above, with N71I counted along it
Procedure: as §1, §2, §3, §4, §5, §6, §7, §8, §9

[5] = test system: CFTR; set-up: method as in PMID 32128418; conditions: HS-YFP assay; cited from earlier work

- Effect of second mutation on corrector-induced rescue of F508del-CFTR [2]: no appreciable change
- Effect of second mutation on corrector-induced maturation of F508del-CFTR [3]: markedly reduced or abolished
- Effect of second mutation on corrector-induced maturation of F508del-CFTR [4]: not affected
Structure (SMILES): CN(C(=O)c1cccc(-n2nc(C(F)(F)F)c3c2[C@@H](Oc2ccc(C(=O)O)cc2)CCC3)c1)c1ccc2c(c1)OC(F)(F)O2 [ARN23765]
- Competition: CFTR recovered in pull-down by PAP_1 DS-biot or PAP_2 DS-biot after preincubation with competitor [1]: markedly reduced amount of the recovered protein
- Effect on the protein gating [5]: no effect
